Like-named read-outs stand apart in the source and are kept apart here.
How the values were obtained:
FGFR1 (h) = FGFR1 (h) (Homo sapiens, UniProt P11362); assay: FGFR1 (enzymatic assay), TR-FRET; type: biochemical; conditions: read-out: FGFR 1 pIC50 (converted)
Protocol: In a final reaction volume of 30 μL, FGFR1 (h) (25 ng/ml) was incubated with 50 mM HEPES pH 7.5, 6 mM MnCl2, 1 mM DTT, 0.1 mM Na3VO4, 0.01% Triton-X-100, 500 nM Btn-Flt3 and 5 μM ATP in the presence of compound (1% DMSO final). […] Time-Resolved Fluorescence Resonance Energy Transfer (TR-FRET) signal (ex340 nm. Em 620 nm, em 655 nm) was measured afterwards and results are expressed in RFU (Relative Fluorescence Units).

[1] = test system: Ba/F3-FGFR1-transfected cells in the presence of 10 ng/ml murine IL3; assay: Ba/F3-FGFR1 (plus IL3) cellular proliferation counterscreen, Alamar Blue; type: cell-based; conditions: for IC50: Mus musculus
Protocol: Ba/F3-FGFR1 (Minus IL3 or Plus IL3) (Cellular Proliferation Assay)
(§1) In a 384 well plate, 100 nl of compound dilution in DMSO was sprayed before adding 50 μl cell culture medium (phenol red free RPMI-1640, 10% FBS, 2 mM L-Glutamine and 50 μg/ml Gentamycin) containing 20000 cells per well of Ba/F3-FGFR1-transfected cells. Cells were put in an incubator at 37° C. and 5% CO2. After 24 hours, 10 μl of Alamar Blue solution (0.5 mM K3Fe(CN)6, 0.5 mM KaFe(CN)6, 0.15 mM Resazurin and 100 mM Phosphate Buffer) was added to the wells, incubated for 4 hours at 37° C. and 5% CO2 before RFU's (Relative Fluorescence Units) (ex. 540 nm., em. 590 nm.) were measured in a flurorescence plate reader.
(§2) As a counterscreen the same experiment was performed in the presence of 10 ng/ml murine IL3.
as §1, with “a 96” for “a 384”, “plate, 180” for “plate, 100 nl of compound dilution in DMSO was sprayed before adding 50”, “containing 10000” for “containing 20000”, “Ba/F3-FGFR1-transfected cells were pipette and 20 μl of compound dilution in DMSO was added.” for “Ba/F3-FGFR1-transfected cells.”, “hours, 40” for “hours, 10”

[2] = target: Ba/F3-FGFR3-transfected cells (Homo sapiens, UniProt P22607); assay: Ba/F3-FGFR3 (minus IL3) cellular proliferation assay, Alamar Blue; type: cell-based; conditions: for BAF3-FGFR 3 (MIN IL3) 384 well pIC50: minus IL3, 384 well; for BAF3-FGFR 3 (MIN IL3) 96 well pIC50: minus IL3, 96 well
Ba/F3-FGFR3-transfected cells, sequence (P22607 whole entry, change not shown): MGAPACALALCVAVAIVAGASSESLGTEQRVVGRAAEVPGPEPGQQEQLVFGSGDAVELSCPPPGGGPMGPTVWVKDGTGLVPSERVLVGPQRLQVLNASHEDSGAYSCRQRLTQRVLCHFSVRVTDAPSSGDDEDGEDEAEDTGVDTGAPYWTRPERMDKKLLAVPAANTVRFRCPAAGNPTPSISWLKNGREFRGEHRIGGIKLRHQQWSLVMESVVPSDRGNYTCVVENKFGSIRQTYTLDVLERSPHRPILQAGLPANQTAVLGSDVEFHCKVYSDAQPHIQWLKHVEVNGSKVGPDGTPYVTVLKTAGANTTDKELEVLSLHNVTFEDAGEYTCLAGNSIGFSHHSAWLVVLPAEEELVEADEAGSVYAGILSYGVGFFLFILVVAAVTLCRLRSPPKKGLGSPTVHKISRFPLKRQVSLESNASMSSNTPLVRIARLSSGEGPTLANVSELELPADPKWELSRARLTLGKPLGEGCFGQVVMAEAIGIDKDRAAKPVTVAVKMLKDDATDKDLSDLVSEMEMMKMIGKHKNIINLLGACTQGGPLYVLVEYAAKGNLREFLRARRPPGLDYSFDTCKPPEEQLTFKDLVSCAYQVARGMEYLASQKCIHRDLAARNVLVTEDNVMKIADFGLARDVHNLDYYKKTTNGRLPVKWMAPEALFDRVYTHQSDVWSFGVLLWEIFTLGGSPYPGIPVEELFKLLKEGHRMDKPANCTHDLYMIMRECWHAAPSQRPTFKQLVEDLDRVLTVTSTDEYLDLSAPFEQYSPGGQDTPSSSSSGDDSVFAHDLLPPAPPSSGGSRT
Protocol: Ba/F3-FGFR3 (Minus IL3 or Plus IL3) (Cellular Proliferation Assay)
Cells were put in an incubator at 37° C. and 5% CO2. After 24 hours, 10 μl of Alamar Blue solution (0.5 mM K3Fe(CN)6, 0.5 mM KaFe(CN)6, 0.15 mM Resazurin and 100 mM Phosphate Buffer) was added to the wells, incubated for 4 hours at 37° C. and 5% CO2 before RFU's (Relative Fluorescence Units) (ex. 540 nm., em. 590 nm.) were measured in a flurorescence plate reader. […]
as §1, with “a 96” for “a 384”, “plate, 180” for “plate, 100 nl of compound dilution in DMSO was sprayed before adding 50”, “containing 10000” for “containing 20000”, “of Ba/F3-FGFR3-transfected cells were pipette and 20 μl of compound dilution in DMSO was added.” for “of Ba/F3-FGFR1-transfected cells.”, “hours, 40” for “hours, 10”

[3] = test system: Ba/F3-Flt3-transfected cells in the presence of 10 ng/ml murine IL3; assay: Ba/F3-Flt3 (plus IL3) cellular proliferation counterscreen, Alamar Blue; type: cell-based; conditions: for IC50: Mus musculus, read-out: BAF3-FLT3 (PLUS IL3) 384 well pIC50 (converted)
Protocol: Ba/F3-Flt3 (Minus IL3 or Plus IL3) (Cellular Proliferation Assay)
as §1, with “Ba/F3-Flt3-transfected” for “Ba/F3-FGFR1-transfected”
as §2
as §1, with “a 96” for “a 384”, “plate, 180” for “plate, 100 nl of compound dilution in DMSO was sprayed before adding 50”, “containing 10000” for “containing 20000”, “of Ba/F3-Flt3-transfected cells were pipette and 20 μl of compound dilution in DMSO was added.” for “of Ba/F3-FGFR1-transfected cells.”, “hours, 40” for “hours, 10”

[4] = plus IL3, 384 well, read-out: BAF3-FGFR 1 (PLUS IL3) 384 well pIC50 (converted)
[5] = plus IL3, 96 well, read-out: BAF3-FGFR 1 (PLUS IL3) 96 well pIC50 (converted)

FGFR1 (h), sequence (P11362 22-822): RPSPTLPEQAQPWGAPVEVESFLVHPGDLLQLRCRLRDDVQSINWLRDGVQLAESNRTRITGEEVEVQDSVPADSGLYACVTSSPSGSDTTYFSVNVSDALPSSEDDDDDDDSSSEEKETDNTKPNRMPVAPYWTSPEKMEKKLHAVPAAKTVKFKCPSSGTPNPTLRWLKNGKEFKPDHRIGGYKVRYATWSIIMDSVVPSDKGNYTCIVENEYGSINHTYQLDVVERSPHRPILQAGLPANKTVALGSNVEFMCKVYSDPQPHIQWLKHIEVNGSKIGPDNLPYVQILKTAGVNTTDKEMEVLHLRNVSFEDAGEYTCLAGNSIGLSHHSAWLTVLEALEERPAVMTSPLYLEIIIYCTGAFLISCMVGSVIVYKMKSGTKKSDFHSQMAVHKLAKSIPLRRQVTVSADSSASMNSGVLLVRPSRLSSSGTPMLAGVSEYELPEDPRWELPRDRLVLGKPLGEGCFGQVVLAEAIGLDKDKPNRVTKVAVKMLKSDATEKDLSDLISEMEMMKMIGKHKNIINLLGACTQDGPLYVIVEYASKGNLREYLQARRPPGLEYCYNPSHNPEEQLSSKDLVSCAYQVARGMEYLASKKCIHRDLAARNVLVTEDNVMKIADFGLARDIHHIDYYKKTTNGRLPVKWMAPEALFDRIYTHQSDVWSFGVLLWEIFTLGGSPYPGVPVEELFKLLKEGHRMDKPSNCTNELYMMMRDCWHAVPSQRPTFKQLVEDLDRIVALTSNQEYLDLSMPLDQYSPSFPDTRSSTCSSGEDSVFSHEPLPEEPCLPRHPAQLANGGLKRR

IC50 (FGFR1 (h)) [µM] | BAF3-FGFR 3 (MIN IL3) 384 well pIC50 [2] | melting point [°C] | BAF3-FGFR 3 (MIN IL3) 96 well pIC50 [2] | SMILES | IC50 [1, 4] [µM] | IC50 ([3]; plus 10 ng/ml murine IL3) [µM] | BAF3-FGFR 1 (PLUS IL3) 384 well pIC50 ([1]; plus IL3, 384 well) | BAF3-FLT3 (PLUS IL3) 384 well pIC50 ([3]; plus 10 ng/ml murine IL3) | IC50 ([3]; plus IL3, 384 well) [µM] | IC50 [1, 5] [µM]
0.0126 | 6.65 | 154 |  | COCC(O)CN(c1cc(OC)cc(OC)c1)c1ccc2ncc(-c3cccnc3)nc2c1 (single isomer, unassigned) [Compound 46] | > 10 | > 10 |  |  |  | 
0.0214 | 6.3 | 153 |  | COCC(O)CN(c1cc(OC)cc(OC)c1)c1ccc2ncc(-c3cccnc3)nc2c1 (single isomer, unassigned) [Compound 47] |  |  | <5 | <5 |  | 
0.0316 | 5.82 |  |  | COc1cc(OC)cc(N(CCNC(C)C)c2ccc3ncc(C(=O)NCCCN4CCN(C)CC4)nc3c2)c1 [Compound 159] | > 10 | > 10 |  |  |  | 
0.00589 | 5.38 |  |  | COc1cc(OC)cc(N(CCNC(C)C)c2ccc3ncc(NCC4CCNCC4)nc3c2)c1 [Compound 161] | > 10 | > 10 |  |  |  | 
0.000813 | 6.16 |  |  | COc1cc(OC)cc(N(CCNC(C)C)c2ccc3ncc(-c4ccc(N5CCN(C)CC5)nc4)nc3c2)c1 [Compound 170] | 3.55 | 5.01 |  |  |  | 
0.107 | 5.36 |  |  | COC(=O)C1CCCN1c1cnc2ccc(N(CCO)c3cc(OC)cc(OC)c3)cc2n1 (stereo not shown) [Compound 172] | > 10 | > 10 |  |  |  | 
0.204 | 5.19 |  |  | COc1cc(OC)cc(N(CCNC(C)C)c2ccc3ncc(C(=O)N4CCN(C)CC4)nc3c2)c1 [Compound 179] | > 10 | > 10 |  |  |  | 
0.229 | 5.28 |  |  | COc1cc(OC)cc(N(CCNC(C)C)c2ccc3ncc(C(=O)N4CCCCC4)nc3c2)c1 [Compound 180] | > 10 | > 10 |  |  |  | 
0.295 | 5.16 |  |  | COc1cc(OC)cc(N(CCNC(C)C)c2ccc3ncc(C(=O)N4CCOCC4)nc3c2)c1 [Compound 181] | > 10 | > 10 |  |  |  | 
0.316 | 5.01 |  |  | COc1cc(OC)cc(N(CCO)c2ccc3ncc(C4CCN(C(=O)OC(C)(C)C)CC4)nc3c2)c1 [Compound 185] | > 10 | > 10 |  |  |  | 
0.0447 | 5.8 |  |  | COc1cc(OC)cc(N(CCCO)c2ccc3ncc(-c4ccnc(C(=O)NCCOCCO)c4)nc3c2)c1 [Compound 186] | > 10 | > 10 |  |  |  | 

The remaining lines, values behind:

SMILES | IC50 (FGFR1 (h)) [µM] | BAF3-FGFR 3 (MIN IL3) 384 well pIC50 [2] | melting point [°C] | BAF3-FGFR 3 (MIN IL3) 96 well pIC50 [2] | IC50 [1, 4] [µM] | IC50 ([3]; plus 10 ng/ml murine IL3) [µM] | BAF3-FGFR 1 (PLUS IL3) 384 well pIC50 ([1]; plus IL3, 384 well) | BAF3-FLT3 (PLUS IL3) 384 well pIC50 ([3]; plus 10 ng/ml murine IL3) | IC50 ([3]; plus IL3, 384 well) [µM] | IC50 [1, 5] [µM]
COc1cc(OC)cc(N(CC#Cc2ncccn2)c2ccc3ncc(-c4cccnc4)nc3c2)c1 [Compound 2] | 0.0832 | 7.13 | 184 |  | 7.41 | > 10 |  |  |  | 
COc1cc(OC)cc(N(CCO)c2ccc3ncc(-c4ccc(N5CCOCC5)nc4)nc3c2)c1 [Compound 19] | 0.00389 | 6.17 | 193 |  | > 10 | > 10 |  |  |  | 
COc1cc(OC)cc(N(CC2CC2)c2ccc3ncc(C#Cc4cncn4C)nc3c2)c1 [Compound 22] | 0.0282 | <5.52 | 166 | 5.04 | > 10 |  |  |  | > 10 | 
COc1cc(OC)cc(N(CCCNCC(F)(F)F)c2ccc3ncc(-c4cnc(OC)nc4)nc3c2)c1 [Compound 26] | 0.112 | <5 | 96 |  | > 10 | > 10 |  |  |  | 
COc1cc(OC)cc(N(CC2CC2)c2ccc3ncc(C(=O)Nc4cncn4C)nc3c2)c1 [Compound 27] | 0.269 | <5 | 180 | <5 | > 10 | > 10 |  |  |  | > 10
COc1cc(OC)cc(N(CC2CC2)c2ccc3ncc(NC(=O)c4ccc(F)cc4)nc3c2)c1 [Compound 28] | 2.4 | <5 | 135 | <5 | > 10 | > 10 |  |  |  | > 10
CO/N=C(\C)c1cnc2ccc(N(CCO)c3cc(OC)cc(OC)c3)cc2n1 [Compound 29] | 0.055 | 5.5 | 149 |  | > 10 | > 10 |  |  |  | 
COc1cc(OC)cc(N(CCN2CCOCC2)c2ccc3ncc(-c4ccc(NC(=O)N5CCOCC5)nc4)nc3c2)c1 [Compound 35] | 0.012 | 6.19 | 153 |  | > 10 | > 10 |  |  |  | 
COc1cc(OC)cc(N(CC2CC2)c2ccc3ncc(-c4ccnc(N5CCN(C)CC5)c4)nc3c2)c1 [Compound 37] | 0.0302 | ~5.26 | 125 | 5.77 | > 10 |  |  |  | 7.94 | 7.59
COc1cc(OC)cc(N(CCO)c2ccc3ncc(-n4cnc(CO)c4)nc3c2)c1 [Compound 38] | 0.0151 | 6.23 | 215 |  | > 10 | > 10 |  |  |  | 
COc1cc(OC)cc(N(CC2CC2)c2ccc3ncc(-c4c[nH]cn4)nc3c2)c1 [Compound 39] | 0.0316 | 5.08 | 166 | 5.51 | > 10 | > 10 |  |  |  | 

From patent US10052320B2, “Substituted quinoxalines as FGFR kinase inhibitors” (ASTEX THERAPEUTICS LIMITED, priority 2011, dated 2018)
